# B1: matrix protein 1 (M1) N-terminal domain, residues 1-165, of influenza A virus H1N1 A/WSN/33 (domain or fragment)
# chain: MSLLTEVETYVLSIVPSGPLKAEIAQRLEDVFAGKNTDLEVLMEWLKTRPILSPLTKGILGFVFTLTVPSERGLQRRRFVQNALNGNGDPNNMDKAVKLYRKLKREITFHGAKEIALSYSAGALASCMGLIYNRMGAVTTEVAFGLVCATCEQIADSQHRSHRQM
# notes: also called N1-165-domain of WSN/33; biotinylated M1
# Experiments:
# [1] = molecular target: T1, M1 (matrix protein 1), recombinant N1-165 domain of WSN/33 (Influenza A virus (A/Wilson-Smith/1933(H1N1)), UniProt P05777); test: surface plasmon resonance, biotinylated M1 on NeutrAvidin chip; assay type: binding
# T1 construct: gene M
# [2] = molecular target: T1, M1 (matrix protein 1), recombinant N1-165 domain of WSN/33 (Influenza A virus (A/Wilson-Smith/1933(H1N1)), UniProt P05777); test: bio-layer interferometry, inhibition of M1-M1 self-association; assay type: binding
# [3] = molecular target: the molecule itself; test: SPR; […], room temperature, pH 7.4; […]
Molecule,Kd [1] [nM],IC50 [2] [nM],Kd [3] [nM]
CCCc1c(OCCCOc2ccc(OCC(=O)O)cc2)ccc(C(C)=O)c1O [PHE],870 ± 150,~6000,
B1,,,0.05 ± 0.03
